Reference: PubChem BioAssay AID328 (DTP/NCI, 2004)
Toxic doses and inconclusive results are not listed. Rule for the calls: active = survival T/C of 150% or more; inactive = T/C below 125% in these data.

Tested on: BDF1 mice, P388 leukemia ip, median survival T/C
Experiment: NCI In Vivo Anticancer Drug Screen. Data for tumor model P388 Leukemia (intraperitoneal) in B6D2F1 (BDF1) mice
Details: endpoint: median survival time, higher = longer survival
Procedure, shortened: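 T/C = treated-group survival ÷ vehicle-control survival; tumour transplanted into mice before dosing.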

[1] = dose: 12.5 mg/kg/injection, schedule: Q01DX009 (ip), vehicle: saline with Tween-80
[2] = dose: 25.0 mg/kg/injection, schedule: Q01DX009 (ip), vehicle: saline with Tween-80
[3] = dose: 50.0 mg/kg/injection, schedule: Q01DX009 (ip), vehicle: saline with Tween-80
[4] = dose: 100.0 mg/kg/injection, schedule: Q01DX009 (ip), vehicle: saline with Tween-80
[5] = dose: 100.0 mg/kg/injection, schedule: Q04DX003 (ip), vehicle: saline with Tween-80
[6] = dose: 200.0 mg/kg/injection, schedule: Q01DX009 (ip), vehicle: saline with Tween-80
[7] = dose: 200.0 mg/kg/injection, schedule: Q04DX003 (ip), vehicle: saline with Tween-80
[8] = dose: 25.0 mg/kg/injection, schedule: Q01DX009 (ip), vehicle: saline
[9] = dose: 25.0 mg/kg/injection, schedule: Q04DX003 (ip), vehicle: saline
[10] = dose: 50.0 mg/kg/injection, schedule: Q04DX003 (ip), vehicle: saline
[11] = dose: 100.0 mg/kg/injection, schedule: Q04DX003 (ip), vehicle: saline
[12] = dose: 200.0 mg/kg/injection, schedule: Q04DX003 (ip), vehicle: saline
[13] = dose: 400.0 mg/kg/injection, schedule: Q04DX003 (ip), vehicle: saline

Measured: T/C

O=[N+]([O-])c1ccc(N=Cc2ccc3c(c2)OCO3)cc1
inactive: dose: 100.0 mg/kg/injection, schedule: Q01DX001 (ip), vehicle: Klucel (hydroxypropylcellulose) (HPC) 100 % of control | dose: 200.0 mg/kg/injection, schedule: Q01DX001 (ip), vehicle: Klucel (hydroxypropylcellulose) (HPC) 95 % of control | dose: 400.0 mg/kg/injection, schedule: Q01DX001 (ip), vehicle: Klucel (hydroxypropylcellulose) (HPC) 95 % of control

CC1=CC(=NC(=O)CBr)C=C/C1=N\S(=O)(=O)c1ccccc1
inactive: dose: 6.25 mg/kg/injection, schedule: Q01DX009 (ip), vehicle: saline with Tween-80 113 % of control | [1] 111 % of control | [2] 106 % of control

OC1(O)CCN(Cc2ccccc2)CC1
inactive: [3] 122 % of control | dose: 50.0 mg/kg/injection, schedule: Q04DX003 (ip), vehicle: saline with Tween-80 95 % of control | [4] 104 % of control | [5] 100 % of control | [6] 95 % of control | [7] 105 % of control

Cc1onc(-c2ccccc2)c1C(=O)N1CCCN2C(=O)c3ccccc3C21 (stereo not drawn)
inactive: [6] 98 % of control

C=CC(C)(O)/C=C/C=C(\C)C(CC1OC1(C)C)OC(=O)/C(C)=C\C (stereo not drawn)
inactive: dose: 0.78 mg/kg/injection, schedule: Q01DX009 (ip), vehicle: saline 106 % of control | dose: 1.56 mg/kg/injection, schedule: Q01DX009 (ip), vehicle: saline 95 % of control | dose: 3.13 mg/kg/injection, schedule: Q01DX009 (ip), vehicle: saline 95 % of control | dose: 6.25 mg/kg/injection, schedule: Q01DX009 (ip), vehicle: saline 113 % of control

Cc1ccc(CC2c3ccccc3Nc3ccccc32)cc1
inactive: dose: 100.0 mg/kg/injection, schedule: Q01DX001 (ip), vehicle: saline with Tween-80 86 % of control | dose: 200.0 mg/kg/injection, schedule: Q01DX001 (ip), vehicle: saline with Tween-80 86 % of control | dose: 400.0 mg/kg/injection, schedule: Q01DX001 (ip), vehicle: saline with Tween-80 88 % of control

COc1ccc(/C=C/C(C)=O)cc1OC
inactive: [8] 94 % of control | [9] 107 % of control | dose: 50.0 mg/kg/injection, schedule: Q01DX009 (ip), vehicle: saline 99 % of control | [10] 106 % of control | dose: 100.0 mg/kg/injection, schedule: Q01DX009 (ip), vehicle: saline 110 % of control | [11] 105 % of control | dose: 200.0 mg/kg/injection, schedule: Q01DX009 (ip), vehicle: saline 103 % of control | [12] 100 % of control | dose: 400.0 mg/kg/injection, schedule: Q01DX009 (ip), vehicle: saline 108 % of control | [13] 107 % of control

CCOC(=O)C1CCCN1C(=O)c1c2nc3c(C(=O)N4CCCC4C(=O)OCC)ccc(C)c3oc-2c(C)c(=O)c1N (stereo not drawn)
inactive: dose: 100.0 mg/kg/injection, schedule: Q04DX002 (ip), vehicle: saline with Tween-80 90 % of control | dose: 200.0 mg/kg/injection, schedule: Q04DX002 (ip), vehicle: saline with Tween-80 101 % of control | dose: 400.0 mg/kg/injection, schedule: Q04DX002 (ip), vehicle: saline with Tween-80 90 % of control

Cc1ccc(CCO)c(C)c1
inactive: dose: 50.0 mg/kg/injection, schedule: Q01DX009 (ip), vehicle: Klucel (hydroxypropylcellulose) (HPC) 95 % of control | dose: 100.0 mg/kg/injection, schedule: Q01DX009 (ip), vehicle: Klucel (hydroxypropylcellulose) (HPC) 109 % of control | dose: 100.0 mg/kg/injection, schedule: Q04DX003 (ip), vehicle: Klucel (hydroxypropylcellulose) (HPC) 100 % of control | dose: 200.0 mg/kg/injection, schedule: Q01DX009 (ip), vehicle: Klucel (hydroxypropylcellulose) (HPC) 90 % of control | dose: 200.0 mg/kg/injection, schedule: Q04DX003 (ip), vehicle: Klucel (hydroxypropylcellulose) (HPC) 90 % of control | dose: 400.0 mg/kg/injection, schedule: Q01DX009 (ip), vehicle: Klucel (hydroxypropylcellulose) (HPC) 113 % of control | dose: 400.0 mg/kg/injection, schedule: Q04DX003 (ip), vehicle: Klucel (hydroxypropylcellulose) (HPC) 100 % of control

C(/C=C\C=C/Nc1ccccc1)=Nc1ccccc1
inactive: dose: 10.0 mg/kg/injection, schedule: Q01DX009 (ip), vehicle: saline with Tween-80 100 % of control | dose: 20.0 mg/kg/injection, schedule: Q01DX009 (ip), vehicle: saline with Tween-80 91 % of control | dose: 40.0 mg/kg/injection, schedule: Q01DX009 (ip), vehicle: saline with Tween-80 89 % of control

COC(OC)c1[nH]c(=S)[nH]c(=O)c1Cc1c(Cl)cccc1Cl
inactive: [5] 104 % of control | [7] 104 % of control | dose: 400.0 mg/kg/injection, schedule: Q04DX003 (ip), vehicle: saline with Tween-80 100 % of control

COC(=O)C12OCC34C(CC5=C(C)C(=O)C(O)=CC5(C)C3C(O)C1O)OC(=O)C(OC(=O)/C=C(\C)C(C)C)C24 (stereo not drawn)
inactive: dose: 31.0 micrograms/kg/injection, schedule: Q01DX009 (ip), vehicle: saline + alcohol 120 % of control | dose: 62.0 micrograms/kg/injection, schedule: Q01DX009 (ip), vehicle: saline + alcohol 115 % of control | dose: 250.0 micrograms/kg/injection, schedule: Q01DX009 (ip), vehicle: saline + alcohol 100 % of control | dose: 500.0 micrograms/kg/injection, schedule: Q01DX009 (ip), vehicle: saline + alcohol 105 % of control | dose: 1000.0 micrograms/kg/injection, schedule: Q01DX009 (ip), vehicle: saline + alcohol 120 % of control | dose: 2000.0 micrograms/kg/injection, schedule: Q01DX009 (ip), vehicle: saline + alcohol 110 % of control

O=S1(=O)CCCCO1
inactive: dose: 11.0 mg/kg/injection, schedule: Q01DX009 (ip), vehicle: saline 90 % of control | dose: 16.5 mg/kg/injection, schedule: Q01DX009 (ip), vehicle: saline 100 % of control | [8] 109 % of control | [9] 95 % of control | dose: 37.5 mg/kg/injection, schedule: Q01DX009 (ip), vehicle: saline 100 % of control | [10] 100 % of control | [11] 104 % of control

[O-][N+](=Nc1cccc(Cl)c1)c1cccc(Cl)c1
inactive: [3] 93 % of control | dose: 66.0 mg/kg/injection, schedule: Q01DX009 (ip), vehicle: saline with Tween-80 89 % of control | [4] 93 % of control | dose: 150.0 mg/kg/injection, schedule: Q01DX009 (ip), vehicle: saline with Tween-80 90 % of control | [6] 94 % of control

CSc1nc(Cl)cc2c1ncn2C1OC(CO)C(O)C1O (stereo not drawn)
inactive: dose: 12.5 mg/kg/injection, schedule: Q04DX003 (ip), vehicle: saline 105 % of control | [9] 102 % of control | [10] 102 % of control | [11] 112 % of control | [12] 110 % of control | [13] 100 % of control

Clc1ccc(C(c2ccc(Cl)cc2)C(Cl)(Cl)Cl)cc1
inactive: [1] 102 % of control | [2] 102 % of control | [3] 88 % of control
